What was measured:
Cry78Aa (Cry78Aa1) = target: T1, Cry78Aa (Cry78Aa1) (Bacillus thuringiensis, UniProt A0A3S6Q0Y2); conditions: 20 mM Tris-HCl pH 8.0, 25 °C; one-site binding model; 50 mM sugar into 150 µM protein
T1 construct: ITC section says only 'Cry78Aa protein'

[1] = other: SDS-PAGE under mild denaturing conditions

T1 sequence (A0A3S6Q0Y2 1-359 limits assumed): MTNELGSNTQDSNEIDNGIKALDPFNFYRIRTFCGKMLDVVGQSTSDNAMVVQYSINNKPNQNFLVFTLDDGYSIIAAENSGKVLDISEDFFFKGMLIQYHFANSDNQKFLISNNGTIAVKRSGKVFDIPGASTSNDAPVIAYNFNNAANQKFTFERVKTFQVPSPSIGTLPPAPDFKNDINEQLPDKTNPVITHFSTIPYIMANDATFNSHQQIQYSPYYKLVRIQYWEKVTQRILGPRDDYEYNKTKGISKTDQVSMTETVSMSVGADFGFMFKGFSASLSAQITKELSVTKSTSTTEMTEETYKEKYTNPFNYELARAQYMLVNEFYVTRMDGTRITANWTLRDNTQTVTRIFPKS

| Compound | Kd (Cry78Aa (Cry78Aa1)) | percent of the sample as oligomers or aggregates in 0.1% SDS [1] |
| --- | --- | --- |
| CC(=O)N[C@H]1C(O)O[C@H](CO)[C@H](O)[C@@H]1O (stereo partly drawn) [GalNAc] | ~9.8 mM | – |
| OC[C@H]1O[C@@H](O[C@H]2[C@H](O)[C@@H](O)C(O)O[C@@H]2CO)[C@H](O)[C@@H](O)[C@H]1O (stereo partly drawn) [lactose] | ~10.2 mM | – |
| Cry78Aa_(155-359) | – | ~30% of the total sample loaded onto each lane |
